This note sets out measurements from article PMC12498288 (Frontiers in Immunology, 2025).

Where “and” joins values, the source holds several entries; their conditions need not be identical. Equal values may be shown once. Read-outs that look alike come from different tables or passages of the source.

Data set [1] in a line: Pharmacokinetics after a single oral dose in Syrian hamsters (serum, HPLC-MS/MS). The class given is in vivo. The settings on record: for C(24 h): mean concentration at 24 h; for Cmax / AUC / Tmax / half-life: po. An excerpt:
Zapnometinib was synthesized by Chemcon GmbH (Freiburg, Germany). Before administration to Syrian hamsters, it was freshly dissolved in dimethyl sulfoxide (DMSO) (Carl Roth GmbH, Karlsruhe, Germany) and then further dissolved in 15% Kolliphor EL (Sigma-Aldrich, Germany) and 80% phosphate-buffered saline (PBS) (Gibco, Life Technology Europe B.V., Bleiswijk, the Netherlands). Kolliphor EL is used to emulsify and solubilize oils and other water in-soluble substances, it has been used as a pharmaceutical solvent for numerous drugs and has proven in previous in vivo studies with zapnometinib. Zapnometinib was administered orally at the indicated doses in a volume of 500 μL/150 g body weight using a gavage needle.
Drug administration and blood sampling in Syrian hamsters were performed by Viroclinics Xplore (Schaijk, the Netherlands) and are described in the sections “Drug administration” and “Sampling after inoculation”. Specifically, at different time points (0, 0.5, 1, 2, 4, 8, 12, and 24 h) after the administration of a single dose of zapnometinib (15, 30, or 60 mg/kg per oral (p.o.)), ~200 µL blood was collected retro-orbitally from three animals per time point per dose and alternating animals between time points (except at 24 h, n = 6 per group) under isoflurane anesthesia using a heparinized capillary tube containing a clot activator (Microvette 500 Z-Gel, Sarstedt). Serum was collected by centrifuging the tubes at 4000 x g for 10 min, aliquoted, and stored at < -70°C until pharmacokinetic analysis. Daily clinical observations included monitoring of signs such as ruffled fur, hunched back posture, accelerated breathing and lethargy, and the body weight was monitored before and 24 h post administration.
Bioanalysis and pharmacokinetic evaluation were performed at Prolytic GmbH (Frankfurt, Germany). […] liquid chromatography tandem mass spectrometry (HPLC-MS/MS) was employed to determine the concentration of zapnometinib in hamster serum in accordance with the company’s SOPs. During the analytical phase, two batches were evaluated. The acceptance criteria for the calibration standards and quality control (QC) samples were fulfilled for both batches as per the company’s SOPs. […] In total, 81 study test samples were analyzed. The validity of the method during the analysis of the test samples was ensured by assaying QC samples with known concentrations of zapnometinib; zapnometinib 13C6 was used as the internal standard. The lower limit of quantification (LLOQ) of the method was determined to be 10 ng/mL for zapnometinib in undiluted serum. All serum concentrations falling below LLOQ were assigned a value of 0. ANALYST software was used to calculate the concentrations of the test and QC samples based on the corresponding calibration curves. The obtained mean serum concentrations were used for noncompartmental pharmacokinetic evaluation with Phoenix® WinNonLin software (Pharsight Corporation, Mountain View, CA, USA; version 8.1).

Data set [2] concerns HCoV OC43. The data set can be described thus: Virus yield reduction assay, HCoV-OC43 on MRC-5 cells (RT-qPCR). In kind it is cell-based. As to conditions: Betacoronavirus 1, OC43, MRC5, MOI 0.1, 24 h. The method, then:
The virus yield reduction assay of HCoV-229E and HCoV-OC43 was performed on MRC-5 cells seeded at 1.5x10^5 cells per well in 24-well plates 24 h prior infection with HCoV-229E (MOI 0.001) or HCoV-OC43 (MOI 0.1) for 1 h. The inoculum was completely removed, and the cells were treated with different concentrations of zapnometinib (50 µM to 0.006 µM) and a solvent control in Iscove’s Modified Dulbecco’s Medium (IMDM) containing 2% FBS, 1% Penicillin/Streptomycin at 34°C, 5% CO2 for 24 h (HCoV-OC43) or 48 h (HCoV-229E). Supernatants were harvested and the viral titer was determined by a real-time one-step multiplex RT-qPCR using specific primers targeting the N and NS2 genes for HCoV-229E and HCoV-OC43 respectively ( Supplementary Table 1 ) EC50 values were calculated based on the measured viral titers normalized to the solvent control (1% DMSO) and using the “log(inhibitor) vs. response - Variable slope (four parameters)” analysis in GraphPad Prism v9.

[3] abbreviates: Syrian, hamster, serum, 15 mg/kg p.o. single dose.
Setting [4] is: Syrian, hamster, serum, 30 mg/kg p.o. single dose.
Where [5] appears, read: hamster, serum, 60 mg/kg p.o. single dose.
The mark [6] stands for this setting: single doses of 15, 30 or 60 mg/kg p.o.

Consider `O=C(O)c1ccc(F)c(F)c1Nc1ccc(I)cc1Cl` [zapnometinib], for which the “C(24 h)” value was 0.26 µM in data set [1] (15 mg/kg p.o. single dose) and 0.55 µM in data set [1] (30 mg/kg p.o. single dose). In addition, the Cmax (commonly the highest concentration seen after dosing) in data set [1] (Syrian, hamster, 15 mg/kg p.o. single dose, serum) was 85100 ng/mL and 34.8 µM; in data set [1] (Syrian, hamster, 30 mg/kg p.o. single dose, serum) it was 53.9 µM; in data set [1] (hamster, 30 mg/kg p.o. single dose, serum), 132 µg/mL; in data set [1] (hamster, 60 mg/kg p.o. single dose, serum), 242000 ng/mL and 99.2 µM. In data set [1] (Syrian, hamster, serum, oral, 60 mg/kg p.o. single dose, read-out: concentration of zapnometinib after 24 h), the concentration at 24 h was 5320 ng/mL and 13 µM. Further, the results for the AUC in data set [1] (setting [3]), in data set [1] (setting [4]) and in data set [1] (setting [5]) were 672 µg·h/mL, 1230 µg·h/mL and 2970 µg·h/mL, respectively. Moreover, the Tmax (usually the time from dosing to the highest level) in data set [1] (setting [3]) came out at 2 h; in data set [1] (setting [4]), 2 h; in data set [1] (setting [5]) it was 4 h. The half-life was 2.74 h in data set [1] (Syrian, hamster, serum, 15 mg/kg p.o. single dose, read-out: T1/2 (converted)); 2.75 h in data set [1] (Syrian, hamster, serum, 30 mg/kg p.o. single dose, read-out: T1/2 (converted)); 2 to 3 h in data set [1] (Syrian, hamster, serum, all dose groups (15, 30, 60 mg/kg p.o.), read-out: apparent terminal half-life); 3.07 h in data set [1] (hamster, serum, 60 mg/kg p.o. single dose, read-out: T1/2 (converted)). The adverse events entry in data set [1] (setting [6]) is listed as “no adverse events were reported”. Besides, in data set [1] (setting [6]), the tolerability entry is reported as “well tolerated”. Also, in data set [2], the 50% effective concentration (EC50) (usually the concentration needed to bring the measured effect to its halfway point) is 16.1 µM and 6.6 µg/mL.
